Assay results from patent publication US20180002319A1, “MACROCYCLIC PICOLINAMIDE COMPOUNDS WITH FUNGICIDAL ACTIVITY” (DOW AGROSCIENCES LLC, priority 2014, published 2018).
Read-outs that look alike come from different tables or passages of the source.

Tests used:
Assay type in all cases: in vivo
[1] = tested on: Zymoseptoria tritici; test: Leaf Blotch of Wheat (SEPTTR) fungicidal activity; conditions: wheat leaf blotch; for pest or weed control at 121.5 g/ha: Low Volume application, 121.5 g/H; for pest or weed control at 100 ppm: High Volume application
Method in brief: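 Wheat seedlings (Yuma, first leaf emerged) were sprayed to run-off with compound in acetone/water containing Triton X-100 and inoculated with Z. tritici spores before or after treatment. Percent disease control comes from 0–100% severity on treated versus untreated plants.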

[2] = tested on: Blumeria graminis f.sp. hordei; test: Barley Powdery Mildew (ERYSGH) fungicidal activity; conditions: 24 h, 1DP (1 Day Protectant), read-out: ERYSGH Disease Control
Procedure: Technical grades of materials were dissolved in acetone, which were then mixed with nine volumes of H2O containing 110 ppm Triton X-100. The fungicide solutions were applied onto wheat seedlings using an automated booth sprayer to run-off. All sprayed plants were allowed to air dry prior to further handling. All fungicides were evaluated using the aforementioned method for their activity vs. all target diseases, unless stated otherwise. Wheat leaf blotch and brown rust activity were also evaluated using track spray applications, in which case the fungicides were formulated as EC formulations, containing 0.1% Trycol 5941 in the spray solutions. Wheat plants (variety Yuma) were grown from seed in a greenhouse in 50% mineral soil/50% soil-less Metro mix until the first leaf was fully emerged, with 7-10 seedlings per pot. These plants were inoculated with an aqueous spore suspension of Zymoseptoria tritici either prior to or after fungicide treatments. After inoculation the plants were kept in 100% relative humidity (one day in a dark dew chamber followed by two to three days in a lighted dew chamber at 20° C.) to permit spores to germinate and infect the leaf. The plants were then transferred to a greenhouse set at 20° C. for disease to develop. When disease symptoms were fully expressed on the 1st leaves of untreated plants, infection levels were assessed on a scale of 0 to 100 percent disease severity. Percent disease control was calculated using the ratio of disease severity on treated plants relative to untreated plants. Example J: Evaluation of Fungicidal Activity: Barley Powdery Mildew (Blumeria graminis f.sp. hordei; Synonym: Erysiphe graminis f.sp. hordei; Bayer Code […]) Barley seedlings (variety Harrington) were propagated in soil-less Metro mix, with each pot having 8 to 12 plants, and used in the test when first leaf was fully emerged. Test plants were inoculated by dusting with infected stock plants 24 hr after fungicide treatments. After inoculation the plants were kept in a greenhouse set at 20° C. for disease to develop. Fungicide formulation, application and disease assessment on the sprayed leaves followed the procedures as described in the Example A.

[3] = tested on: Glomerella lagenarium; Anamorph: Colletotrichum lagenarium; test: Cucumber Anthracnose (COLLLA) fungicidal activity; conditions: Colletotrichum orbiculare, 24 h, 1DP (1 Day Protectant), read-out: COLLLA Disease Control
Procedure: Technical grades of materials were dissolved in acetone, which were then mixed with nine volumes of H2O containing 110 ppm Triton X-100. The fungicide solutions were applied onto wheat seedlings using an automated booth sprayer to run-off. All sprayed plants were allowed to air dry prior to further handling. All fungicides were evaluated using the aforementioned method for their activity vs. all target diseases, unless stated otherwise. Wheat leaf blotch and brown rust activity were also evaluated using track spray applications, in which case the fungicides were formulated as EC formulations, containing 0.1% Trycol 5941 in the spray solutions. Wheat plants (variety Yuma) were grown from seed in a greenhouse in 50% mineral soil/50% soil-less Metro mix until the first leaf was fully emerged, with 7-10 seedlings per pot. These plants were inoculated with an aqueous spore suspension of Zymoseptoria tritici either prior to or after fungicide treatments. After inoculation the plants were kept in 100% relative humidity (one day in a dark dew chamber followed by two to three days in a lighted dew chamber at 20° C.) to permit spores to germinate and infect the leaf. The plants were then transferred to a greenhouse set at 20° C. for disease to develop. When disease symptoms were fully expressed on the 1st leaves of untreated plants, infection levels were assessed on a scale of 0 to 100 percent disease severity. Percent disease control was calculated using the ratio of disease severity on treated plants relative to untreated plants. Example N: Evaluation of Fungicidal Activity: Cucumber Anthracnose (Glomerella lagenarium; Anamorph: Colletotrichum lagenarium; Bayer Code COLLLA) Cucumber seedlings (variety Bush Pickle) were propagated in soil-less Metro mix, with each pot having one plant, and used in the test when 12 to 14 days old. Test plants were inoculated with an aqueous spore suspension of Colletotrichum lagenarium 24 hr after fungicide treatments. After inoculation the plants were kept in a dew room at 22° C. with 100% relative humidity for 48 hr to permit spores to germinate and infect the leaf. The plants were then transferred to a growth room set at 22° C. for disease to develop. Fungicide formulation, application and disease assessment on the sprayed leaves followed the procedures as described in the Example A.

[4] = tested on: Magnaporthe grisea; Anamorph: Pyricularia oryzae; test: whole plant or invertebrate; conditions: 24 h, read-out: PYRIOR Disease Control
[5] = 24 h, 1 day protectant, read-out: SEPTTR disease control, 1DP (1 Day Protectant)
[6] = 72 h, 3 day curative, read-out: SEPTTR disease control, 3DC (3 Day Curative)

SMILES	pest or weed control at 121.5 g/ha [1, 5]	pest or weed control at 121.5 g/ha [1, 6]	pest or weed control at 100 ppm [2]	pest or weed control at 100 ppm [3]	pest or weed control at 100 ppm [1, 5]	pest or weed control at 100 ppm [1, 6]	pest or weed control at 100 ppm [4]
COc1ccnc(C(=O)N[C@H]2COCC[C@H](Cc3ccccc3)[C@@H](OCC(C)C)[C@H](C)OC2=O)c1OC(C)=O [Compound 21]	< 80%	> 80%	< 80%	> 80%			
COc1ccnc(C(=O)N[C@H]2COCC[C@H](Cc3ccccc3)[C@@H](OCC(C)C)[C@H](C)OC2=O)c1OCOC(C)=O [Compound 20]	< 80%	> 80%	< 80%	> 80%			
CCCCO[C@H]1CCOC[C@H](NC(=O)c2nccc(OC)c2OCOC(C)=O)C(=O)O[C@@H](C)[C@@H]1OCc1ccccc1 [Compound 2]	< 80%		< 80%	> 80%	> 80%	< 80%	> 80%
CCCCCO[C@H]1[C@H](C)OC(=O)[C@@H](NC(=O)c2nccc(OC)c2OCOC(C)=O)CCCC[C@@H]1Oc1ccccc1 [Compound 17]			< 80%		> 80%	> 80%	> 80%
CCCCO[C@H]1CCOC[C@H](NC(=O)c2nccc(OC)c2OCOC(C)=O)C(=O)O[C@@H](C)[C@@H]1OC(=O)C1CC1 [Compound 5]				< 80%	> 80%	< 80%	< 80%
COc1ccnc(C(=O)N[C@H]2COCC[C@@H](OCC(C)C)[C@@H](OCC(C)C)[C@H](C)OC2=O)c1OCOC(C)=O [Compound 6]				> 80%	> 80%		> 80%
CCCCO[C@H]1CCOC[C@H](NC(=O)c2nccc(OC)c2OCOC(C)=O)C(=O)O[C@@H](C)[C@@H]1OC(=O)c1ccccc1 [Compound 4]	< 80%		< 80%	> 80%	> 80%	< 80%	> 80%
CCCCO[C@H]1CCOC[C@H](NC(=O)c2nccc(OC)c2OCOC(C)=O)C(=O)O[C@@H](C)[C@@H]1OC(=O)C(C)C [Compound 3]			< 80%	< 80%	> 80%	< 80%	> 80%
COc1ccnc(C(=O)N[C@H]2CCCC[C@H](Oc3ccccc3)[C@@H](Oc3ccccc3)[C@H](C)OC2=O)c1OCOC(C)=O [Compound 19]	> 80%	> 80%	< 80%		> 80%	> 80%	> 80%
COc1ccnc(C(=O)N[C@H]2CCOC[C@H](Oc3ccccc3)[C@@H](Oc3ccccc3)[C@H](C)OC2=O)c1OCOC(C)=O [Compound 37]	> 80%	> 80%		> 80%			> 80%
CCCO[C@H]1[C@H](C)OC(=O)[C@@H](NC(=O)c2nccc(OC)c2OCOC(C)=O)CCCC[C@@H]1Oc1ccccc1 [Compound 18]			< 80%		> 80%	> 80%	> 80%
